“Also recorded” adds a separate entry of the source. Counter-ions that a name gives are not always drawn. Like-named read-outs stand apart in the source and are kept apart here.
Columns and labels:
[1] = Humid storage of the crystalline forms II and III at 25° C. and 60% relative air humidity; assay type: physicochemical
Description: Storage conditions: 25° C. and 60% relative air humidity for 5 hrs, 24 hrs and 7 days
The substances were weighed directly into DSC and TGA crucibles, and these crucibles were stored in a climate chamber.
50 mg of the substances were weighed into 1 ml vials, three times in each case, and these vials were then stored openly in a climate chamber.

[2] = Absorption of water by dynamic vapour sorption (DVS); assay type: physicochemical; conditions: 25° C.; for water content of the sample if the relative air humidity is reduced to 0%: 0% relative air humidity; for water content of the sample if the relative air humidity is reduced to 0% / water content at 50% relative air humidity at the end of the measuring cycle / relative air humidity above which the crystalline form absorbs water very quickly: hydrochloride
Description: The absorption of water is ascertained by dynamic vapour sorption (DVS) with a DVS-1 instrument manufactured by Surface Measurement Systems Ltd. The sample is placed in a platinum crucible at the pivot of a microbalance. The sample is then initially equilibrated at 50% relative air humidity and then subjected to a predefined measuring program. The temperature was 25° C. The change in weight of the sample is determined.

[3] = Hydrate formation in the presence of atmospheric moisture (description); assay type: physicochemical; conditions: for relative air humidity at which hydrates of the crystalline form V are formed: hydrochloride
[4] = for sequence of stability at room temperature: conditions for avoiding the formation of solvates, from Examples 8.1 to 8.4; for crystalline form found by Raman spectrum: Example 8.4: forms IV and II together in ethyl acetate
[5] = Stability in air / chemical stability (description); conditions: for stability in air: normal conditions / ambient temperature
[6] = Thermodynamic stability of the crystalline form (description); assay type: physicochemical; conditions: low temperatures
[7] = 25° C., 60% relative air humidity, 24 hours, second test series
[8] = presence of atmospheric moisture
[9] = Example 8.3: forms III and II together in ethyl acetate, three days, 23° C.
[10] = Example 8.1: forms I and II together in ethyl acetate, eleven days, 25° C.
[11] = stir-mixing in ethyl acetate, 23° C.

| SMILES | water content [1, 7] [%] | water content of the sample if the relative air humidity is reduced to 0% [2] [wt. %] | water content at 50% relative air humidity at the end of the measuring cycle [2] [%] | recorded Raman spectrum at the end of the measuring cycle [2] | relative air humidity above which the crystalline form absorbs water very quickly [2] [%] | relative air humidity at which hydrates of the crystalline form V are formed [3, 8] [%] | crystalline form found by Raman spectrum after stirring [4, 9] | sequence of stability at room temperature [4] | stability in air [5] | crystalline form found by Raman spectrum after stirring [4, 10] | stability in air ([5]; hydrochloride) | other results |
| --- | --- | --- | --- | --- | --- | --- | --- | --- | --- | --- | --- | --- |
| CN(C)C[C@@H]1CCCC[C@H]1c1cccc(O)c1.Cl [crystalline form III, (1R,2R)-3-[2-(dimethylamino)methyl-(cyclohex-1-yl)]phenol hydrochloride] | 6.08 | 3.1 | 7.8 | corresponds to the Raman spectrum of the crystalline form V | > 55 | > 50 | only bands of the crystalline form II are measured | I>II>III≈IV | stable under normal conditions in air and with exclusion of atmospheric moisture | – | – | water absorbed ([1]; 25° C., 60% relative air humidity, 5 hours, first test series (DSC and TGA crucibles), listed as modification III, hydrochloride): 6.70%; water absorbed ([1]; 25° C., 60% relative air humidity, 5 hours, second test series (50 mg in open 1 ml vials), listed as modification III, hydrochloride): 1.92%; water absorbed ([1]; 25° C., 60% relative air humidity, 24 hours, first test series, listed as modification III, hydrochloride): 6.28%; water content ([1]; 25° C., 60% relative air humidity, one week, first test series, listed as modification III, hydrochloride): 6.74%; water content ([1]; 25° C., 60% relative air humidity, one week, second test series, listed as modification III, hydrochloride): 6.83%; crystalline form found by Raman spectrum after stirring ([4]; Example 8.2: forms III and IV together in ethyl acetate, twelve days, 23° C.): only bands of the crystalline form I were measured |
| CN(C)C[C@@H]1CCCC[C@H]1c1cccc(O)c1.Cl [crystalline form II, (1R,2R)-3-[2-(dimethylamino)methyl-(cyclohex-1-yl)]phenol hydrochloride] | 6.08 | 3.3 | 7.9 | corresponds to the Raman spectrum of the crystalline form V | > 75 | > 70 | only bands of the crystalline form II are measured | I>II>III≈IV | stable under normal conditions in air and with exclusion of atmospheric moisture | predominantly contained the crystalline form I and small amounts of form V | – | water absorbed ([1]; 25° C., 60% relative air humidity, 5 hours, first test series (DSC and TGA crucibles), listed as modification II, hydrochloride): 0.04%; water absorbed ([1]; 25° C., 60% relative air humidity, 5 hours, second test series (50 mg in open 1 ml vials), listed as modification II, hydrochloride): 0.12%; water absorbed ([1]; 25° C., 60% relative air humidity, 24 hours, first test series, listed as modification II, hydrochloride): 3.28%; water-absorption behavior ([1]; 25° C., 60% relative air humidity, both test series): absorbs water more slowly in both tests than modification III; water content ([1]; 25° C., 60% relative air humidity, one week, first test series, listed as modification II, hydrochloride): 7.03%; water content ([1]; 25° C., 60% relative air humidity, one week, second test series, listed as modification II, hydrochloride): 7.04%; proportion of water after storage ([1]; 5 hours of storage at a relative air humidity of 60%): < 0.15 wt. %; hygroscopicity ([3]; compared with other crystalline forms): less hygroscopic than the compounds of the crystalline forms I, III and IV; relative air humidity at which hydrates of the crystalline form V are formed (only slowly) [3, 8]: > 70%; crystalline form found by Raman spectrum ([4]; 23° C., after 32 days): almost exclusively the crystalline form I was detected; crystalline form found by Raman spectrum ([4]; 23° C., after the first three days): the first traces of the crystalline form I were detected; crystalline form found by Raman spectrum ([4]; 23° C., initially): only bands of the crystalline form II were measured; time at which a small proportion of the crystalline form I can be detected [4, 11]: after three days of stir-mixing; time until complete conversion into the crystalline form I [4, 11]: 32 days; chemical stability [5]: good chemical stability |
| CN(C)CC1CCCCC1c1cccc(O)c1 [crystalline form IV, (1R,2R)-3-[2-(dimethylamino)methyl(cyclohex-1-yl)]phenol hydrochloride] | – | – | – | – | – | – | – | I>II>III≈IV | – | – | stable under normal conditions in air and with exclusion of atmospheric moisture | – |
| CN(C)CC1CCCCC1c1cccc(O)c1 [crystalline form V, (1R,2R)-3-[2-(dimethylamino)methyl(cyclohex-1-yl)]phenol hydrochloride] | – | – | – | – | – | – | – | – | – | – | stable in air under normal conditions; also recorded: stable at ambient temperature in air | – |
| CN(C)CC1CCCCC1c1cccc(O)c1 [Amorphous compounds of the formula (1), (1R,2R)-3-[2-(dimethylamino)-methyl(cyclohex-1-yl)]phenol hydrochloride] | – | – | – | – | – | – | – | – | – | – | – | stability of the amorphous form ([5]; in the presence of moisture tends to form hydrates): not very stable |
| CN(C)C[C@@H]1CCCC[C@H]1c1cccc(O)c1.Cl [crystalline form I, (1R,2R)-3[-2-(dimethylamino)methyl-(cyclohex-1-yl)]phenol hydrochloride] | – | 3.2 | 7.2 | corresponds to the Raman spectrum of the crystalline form V | > 50 | > 50 | – | I>II>III≈IV | – | predominantly contained the crystalline form I and small amounts of form V | – | temperature up to which the form is thermodynamically the most stable form [6]: approximately 40 °C |

From patent US8058476B2, “HCI polymorphs of 3-((2-(dimethylamino)methyl(cyclohex-1-yl)) phenol” (priority 2005, dated 2011)
